Legend:
[1] = Intrinsic apparent clearance in human liver microsomes; type: ADME, Microsome; conditions: read-out: CLH(app)
[2] = target: T1, Kynurenine/alpha-aminoadipate aminotransferase, mitochondrial (Homo sapiens, UniProt Q8N5Z0); test: Ratio of Kinact to Ki for inhibition of human KAT2
Target sequence in this assay (Q8N5Z0 30-425 limits assumed): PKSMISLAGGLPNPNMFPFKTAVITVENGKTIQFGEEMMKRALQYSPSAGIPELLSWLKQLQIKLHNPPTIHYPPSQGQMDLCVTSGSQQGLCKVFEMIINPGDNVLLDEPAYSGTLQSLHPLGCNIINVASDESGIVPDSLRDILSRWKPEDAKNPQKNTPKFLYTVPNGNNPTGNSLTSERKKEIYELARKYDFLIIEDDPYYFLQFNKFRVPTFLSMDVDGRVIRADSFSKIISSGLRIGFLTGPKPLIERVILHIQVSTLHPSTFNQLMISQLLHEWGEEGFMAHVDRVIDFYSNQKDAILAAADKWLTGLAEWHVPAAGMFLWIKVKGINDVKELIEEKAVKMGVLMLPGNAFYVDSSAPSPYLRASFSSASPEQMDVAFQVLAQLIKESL

[3] = target: T1, Kynurenine/alpha-aminoadipate aminotransferase, mitochondrial; test: Inhibition of human KAT2 using L-kynurenine as substrate measured every 5 mins for 16 hours by UV-visible spectra analysis
Target sequence in this assay (Q8N5Z0 30-425 limits assumed): as above

[4] = target: T1, Kynurenine/alpha-aminoadipate aminotransferase, mitochondrial; test: Inhibition of human KAT2 using L-kynurenine as substrate after 15 to 20 hrs by UV-visible spectra analysis
Target sequence in this assay (Q8N5Z0 whole entry): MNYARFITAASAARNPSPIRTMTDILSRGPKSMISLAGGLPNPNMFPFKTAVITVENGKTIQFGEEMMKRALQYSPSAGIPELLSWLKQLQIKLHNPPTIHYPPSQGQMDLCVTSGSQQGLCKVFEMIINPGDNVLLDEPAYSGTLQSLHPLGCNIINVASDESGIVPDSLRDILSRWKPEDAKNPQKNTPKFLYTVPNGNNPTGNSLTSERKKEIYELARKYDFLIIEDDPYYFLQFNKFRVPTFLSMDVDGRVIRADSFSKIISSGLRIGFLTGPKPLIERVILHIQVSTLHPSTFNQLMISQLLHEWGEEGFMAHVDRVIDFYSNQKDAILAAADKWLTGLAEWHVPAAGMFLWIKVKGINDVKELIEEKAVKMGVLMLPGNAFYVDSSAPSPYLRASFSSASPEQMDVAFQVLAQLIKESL

Row | Structure (SMILES) | microsomal CLint [1] | Ratio [2] | Kinact [3] | IC50 [4] | Ki [4]
1 | N[C@H]1Cc2cn(-c3ccccc3)nc2N(O)C1=O | < 8 µL/min/mg | 112000 M⁻¹ s⁻¹ | 0.0125 min⁻¹ | 25 nM | 1.9 nM
2 | COc1cccc(Cc2nn(C)c3c2C[C@H](N)C(=O)N3O)c1 | – | 8710 M⁻¹ s⁻¹ | 0.0116 min⁻¹ | – | 22 nM
3 | N[C@H]1Cc2c(cnn2Cc2ccccc2)N(O)C1=O | – | 16200 M⁻¹ s⁻¹ | 0.0116 min⁻¹ | – | 12 nM
4 | N[C@H]1Cc2cn(Cc3ccccc3)nc2N(O)C1=O | – | 10500 M⁻¹ s⁻¹ | 0.0147 min⁻¹ | 47 nM | 23 nM
5 | COc1cc2c(cc1Cc1ccccc1)C[C@H](N)C(=O)N2O | 26 µL/min/mg | 129000 M⁻¹ s⁻¹ | 0.0146 min⁻¹ | 37 nM | 1.6 nM
6 | Cn1nc(Cc2ccccc2)c2c1N(O)C(=O)[C@@H](N)C2 | – | 16000 M⁻¹ s⁻¹ | 0.0349 min⁻¹ | – | 32 nM
7 | N[C@H]1Cc2ccccc2N(O)C1=O | – | – | – | – | 14 nM
8 | N[C@H]1Cc2c(c(C(F)(F)F)nn2Cc2ccccc2)N(O)C1=O | – | 7920 M⁻¹ s⁻¹ | 0.0227 min⁻¹ | 74 nM | 48 nM
9 | N[C@H]1Cc2nn(-c3ccccc3)cc2N(O)C1=O | – | 8580 M⁻¹ s⁻¹ | 0.0144 min⁻¹ | 85 nM | 41 nM
